Laboratory results as given in patent US20250243160A1, “INDOLE DERIVATIVES FOR TARGETING AUTOPHAGY” (Automera PTE. LTD, priority 2024, published 2025).

Test system: p62 puncta
Assay: p62 puncta immunocytochemistry imaging in HeLa cells
Format: cell-based
Conditions: 24 hours treatment, relative to vehicle control (DMSO)
Method: HeLa cells were seeded in coated 96-well plates (10,000 cells) and allowed to adhere overnight. After 24 hours of treatment with either vehicle (DMSO) or test compounds, the media was discarded, and cells were rinsed with ice-cold 1×PBS before fixation by 4% formaldehyde or paraformaldehyde for 20 min. Cells were then washed with 1×PBS and permeabilized with 0.1% Triton X-100 in PBS for 20 min and blocked with Blocking Buffer in PBS for 1 hour. The cells were incubated thereafter for 1 hour with anti-p62 primary antibody in Blocking Buffer, followed by incubation with secondary antibody for 1 hour. DAPI dye was used to visualize nuclei of fixed cells. The blocking buffer used were 5% Fetal Bovine Serum (FBS, ThermoFIsher Scientific, 10270106) and Li-cor Intercept (PBS) Blocking Buffer (Li-cor, 927-70001). The primary antibody used was mouse anti-p62 primary antibody (Novus Biologicals, H00008878-M01). The secondary antibodies used were goat anti-mouse Alexa Fluor Plus 488 secondary antibody (Invitrogen, GOXMS) and goat anti-mouse Alexa Fluor 488 secondary antibody (Invitrogen, A-11029). The DAPI dyes used were DAPI dye (Invitrogen, 62248) and DAPI dye (Invitrogen, D1306).
For the EVOS M7000 System, cells were imaged on the EVOS M7000 microscope using a 20× air objective (Nikon, N.A 0.45). DAPI and p62 channels were illuminated with LED light cubes using integrated hard-coated filter sets for DAPI (357/447 nm) and GFP (470/525 nm) respectively. Images were analysed for p62 puncta count on the Celeste 6.0 software.
For the Operetta CLS System, cells were imaged on the Operetta CLS using a 63× water objective on the DAPI and Alexa 488 channels. Images were analysed for p62 puncta count on the Harmony 5.1 software.
HeLa cells were treated with compounds for 24 hours to evaluate the effect of these compounds on p62 puncta activity. The resulting changes in levels of p62 puncta were assessed by imaging, either on the EVOS M7000 or Operetta CLS systems as described in experimental procedures. The fold change of p62 puncta levels induced by compound treatment relative to vehicle control (DMSO) was determined and summarized in Table 10.

Row | SMILES | p62 puncta (fold change of p62 puncta levels)
1 | CC(C)NCC(O)COc1ccc2c(ccn2Cc2ccccc2)c1 (stereo not drawn) [Compound 39] | ++ (>2-fold change in p62 puncta levels relative to DMSO control)
2 | CNCCOCc1cccc2c1ccn2Cc1ccc(F)cc1 [Compound 77] | ++ (>2-fold change in p62 puncta levels relative to DMSO control)
3 | OCCNCc1ccc(Cl)c2c1ccn2Cc1ccc(F)cc1 [Compound 80] | ++ (>2-fold change in p62 puncta levels relative to DMSO control)
4 | Cc1cn(Cc2ccc(F)cc2)c2cc(F)cc(CNCCO)c12 [Compound 81] | ++ (>2-fold change in p62 puncta levels relative to DMSO control)
5 | O=C(Cn1ccc2c(CNCCO)cc(F)cc21)c1ccc(F)cc1 [Compound 83, 2-(6-fluoro-4-(((2-hydroxyethyl)amino)methyl)-1H-indol-1-yl)-1-(4-fluorophenyl)ethan-1-one] | ++ (>2-fold change in p62 puncta levels relative to DMSO control)
6 | C#CCCOCCOCCNCc1cc(F)cc2c1ccn2Cc1ccc(Cl)cc1 [Compound 86] | ++ (>2-fold change in p62 puncta levels relative to DMSO control)
7 | C#CCCOCCOCCOCCNCc1cc(F)cc2c1ccn2Cc1ccc(Cl)cc1 [Compound 87, 2-(2-(2-(but-3-yn-1-yloxy)ethoxy)ethoxy)-N-((1-(4-chlorobenzyl)-6-fluoro-1H-indol-4-yl)methyl)ethan-1-amine] | ++ (>2-fold change in p62 puncta levels relative to DMSO control)
8 | COC(=O)CCOCCOCCNCc1cc(F)cc2c1ccn2Cc1ccc(Cl)cc1 [Compound 88] | + (<2-fold change in p62 puncta levels relative to DMSO control)
9 | CNCCOCCOCCNCc1cc(F)cc2c1ccn2Cc1ccc(Cl)cc1 [Compound 89] | ++ (>2-fold change in p62 puncta levels relative to DMSO control)
10 | CNCCOCCOCCOCCNCc1cc(F)cc2c1ccn2Cc1ccc(Cl)cc1 [Compound 90] | ++ (>2-fold change in p62 puncta levels relative to DMSO control)
11 | CC(C)(C)OC(=O)N1CCC(OCCOCCNCc2cc(F)cc3c2ccn3Cc2ccc(Cl)cc2)CC1 [Compound 93] | ++ (>2-fold change in p62 puncta levels relative to DMSO control)
12 | Fc1cc(CNCCOCCOCCOCCCOc2ccccc2)c2ccn(Cc3ccc(Cl)cc3)c2c1 [Compound 94] | ++ (>2-fold change in p62 puncta levels relative to DMSO control)
13 | COCCNCc1cc(F)cc2c1ccn2Cc1ccc(Cl)cc1 [Compound 108] | ++ (>2-fold change in p62 puncta levels relative to DMSO control)
14 | OCCNCc1cncc2c1ccn2Cc1ccc(Cl)cc1 [Compound 110, 2-(((1-(4-chlorobenzyl)-1H-pyrrolo[2,3-c]pyridin-4-yl)methyl)amino)ethan-1-ol] | ++ (>2-fold change in p62 puncta levels relative to DMSO control)
15 | OCCNCc1ccnc2c1ccn2Cc1ccc(Cl)cc1 [Compound 111] | + (<2-fold change in p62 puncta levels relative to DMSO control)
16 | OCCNCc1cc2ccn(Cc3ccc(F)cc3)c2cc1F [Compound 112, 2-(((6-fluoro-1-(4-fluorobenzyl)-1H-indol-5-yl)methyl)amino)ethan-1-ol] | ++ (>2-fold change in p62 puncta levels relative to DMSO control)
17 | OCCNCc1cncc2c1ccn2Cc1ccc(F)cc1 [Compound 113] | + (<2-fold change in p62 puncta levels relative to DMSO control)
18 | COC1CN(Cc2cncc3c2ccn3Cc2ccc(F)cc2)C1 [Compound 114] | + (<2-fold change in p62 puncta levels relative to DMSO control)
19 | C#CCCOCCOCCNCC(O)COc1cccc2c1ccn2Cc1ccccc1 (stereo not drawn) [Compound 117] | ++ (>2-fold change in p62 puncta levels relative to DMSO control)
20 | COC(=O)CCOCCNCC(O)COc1cccc2c1ccn2Cc1ccccc1 (stereo not drawn) [Compound 118] | ++ (>2-fold change in p62 puncta levels relative to DMSO control)
21 | C#CCCN1CCC(OCCNCc2cc(F)cc3c2ccn3Cc2ccc(Cl)cc2)CC1 [Compound 119] | ++ (>2-fold change in p62 puncta levels relative to DMSO control)
22 | C#CCCN1CCC(COCCNCc2cc(F)cc3c2ccn3Cc2ccc(Cl)cc2)CC1 [Compound 120] | ++ (>2-fold change in p62 puncta levels relative to DMSO control)
23 | C#CCCN1CCN(CCOCCNCc2cc(F)cc3c2ccn3Cc2ccc(Cl)cc2)CC1 [Compound 121] | ++ (>2-fold change in p62 puncta levels relative to DMSO control)

Row | SMILES | p62 puncta (fold change of p62 puncta levels)
24 | C#CCCOCCOCCOCCNCc1ccc(Cl)c2c1ccn2Cc1ccccc1 [Compound 122] | ++ (>2-fold change in p62 puncta levels relative to DMSO control)
25 | C#CCCOCCOCCOCCNCc1cc(F)cc2c1ccn2Cc1ccc(F)cc1 [Compound 123] | ++ (>2-fold change in p62 puncta levels relative to DMSO control)
26 | C#CCCOCCNCc1cc(F)cc2c1ccn2Cc1ccc(F)cc1 [Compound 125] | + (<2-fold change in p62 puncta levels relative to DMSO control)
27 | C#CCCOCCOCCOCCNCc1cccc2c1ccn2CCc1cccnc1 [Compound 126] | + (<2-fold change in p62 puncta levels relative to DMSO control)
28 | CC(C)(C)OC(=O)NC1CCN(CCOCCNCc2cc(F)cc3c2ccn3Cc2ccc(Cl)cc2)CC1 [Compound 127] | ++ (>2-fold change in p62 puncta levels relative to DMSO control)
29 | CC(C)(C)OC(=O)NCCN1CCN(CCOCCNCc2cc(F)cc3c2ccn3Cc2ccc(Cl)cc2)CC1 [Compound 128] | ++ (>2-fold change in p62 puncta levels relative to DMSO control)
30 | COC1CCN(CCOCCNCc2cc(F)cc3c2ccn3Cc2ccc(Cl)cc2)CC1 [Compound 129] | ++ (>2-fold change in p62 puncta levels relative to DMSO control)
31 | COCCN1CCC(OCCNCc2cc(F)cc3c2ccn3Cc2ccc(Cl)cc2)CC1 [Compound 130] | ++ (>2-fold change in p62 puncta levels relative to DMSO control)
32 | CC(C)(C)OC(=O)NCCOCCNCc1cc(F)cc2c1ccn2Cc1ccc(Cl)cc1 [Compound 133] | ++ (>2-fold change in p62 puncta levels relative to DMSO control)
33 | CC(C)(C)OC(=O)N1CCC(COCCNCc2cc(F)cc3c2ccn3Cc2ccc(Cl)cc2)CC1 [Compound 134] | ++ (>2-fold change in p62 puncta levels relative to DMSO control)
34 | CC(C)(C)OC(=O)NCCOCCOCCNCc1cc(F)cc2c1ccn2Cc1ccc(Cl)cc1 [Compound 135] | ++ (>2-fold change in p62 puncta levels relative to DMSO control)
35 | CC(C)(C)OC(=O)NCCOCCOCCOCCNCc1cc(F)cc2c1ccn2Cc1ccc(Cl)cc1 [Compound 136] | ++ (>2-fold change in p62 puncta levels relative to DMSO control)
36 | C#CCOCCOCCOCCNCc1cc(F)cc2c1ccn2Cc1ccc(Cl)cc1 [Compound 137] | ++ (>2-fold change in p62 puncta levels relative to DMSO control)
37 | CC(C)(C)OC(=O)CCOCCOCCNCc1cc(F)cc2c1ccn2Cc1ccc(Cl)cc1 [Compound 138] | ++ (>2-fold change in p62 puncta levels relative to DMSO control)
38 | CC(C)(C)OC(=O)COCCCOCCNCc1cc(F)cc2c1ccn2Cc1ccc(Cl)cc1 [Compound 139] | + (<2-fold change in p62 puncta levels relative to DMSO control)
39 | C#CCOCCOCCNCc1cc(F)cc2c1ccn2Cc1ccc(Cl)cc1 [Compound 140] | ++ (>2-fold change in p62 puncta levels relative to DMSO control)
40 | CC(C)(C)OC(=O)COCCNCc1cc(F)cc2c1ccn2Cc1ccc(Cl)cc1 [Compound 141] | + (<2-fold change in p62 puncta levels relative to DMSO control)
41 | CC(C)(C)OC(=O)CCOCCNCc1cc(F)cc2c1ccn2Cc1ccc(Cl)cc1 [Compound 142] | + (<2-fold change in p62 puncta levels relative to DMSO control)
42 | C#CCCOCCNCc1cc(F)cc2c1ccn2Cc1ccc(Cl)cc1 [Compound 143] | ++ (>2-fold change in p62 puncta levels relative to DMSO control)
43 | COC(=O)c1ccc(COCCNCc2cc(F)cc3c2ccn3Cc2ccc(Cl)cc2)cc1 [Compound 144] | + (<2-fold change in p62 puncta levels relative to DMSO control)
44 | COC(=O)c1cccc(COCCNCc2cc(F)cc3c2ccn3Cc2ccc(Cl)cc2)c1 [Compound 145] | + (<2-fold change in p62 puncta levels relative to DMSO control)
45 | Fc1cc(CNCCOCCCCl)c2ccn(Cc3ccc(Cl)cc3)c2c1 [Compound 146] | ++ (>2-fold change in p62 puncta levels relative to DMSO control)
